Assay results: DBAASP
≈ marks a conversion by molar mass, not a printed value. Blank lines part the entries; values can stand above or below the compound they belong to.

Key:
Assay in all cases: ≥ marks a high value that may be exact or a test limit, other limits are often not marked, values filed in µg/mL are converted to µM
[1] = test system: Staphylococcus aureus ATCC 43300
[2] = test system: Staphylococcus aureus ATCC 6538
[3] = test system: Candida albicans ATCC 90028
[4] = test system: Escherichia coli ATCC 8739
[5] = test system: Micrococcus luteus ATCC 9341
Staphylococcus xylosus = test system: Staphylococcus xylosus
[6] = test system: Escherichia coli DH5alpha
[7] = test system: Salmonella enterica subsp. enterica serovar Typhimurium C77-31
[8] = test system: Salmonella enterica subsp. enterica serovar Pullorum C79-13
[9] = test system: Bacillus subtilis CMCC 63501
[10] = test system: Staphylococcus epidermidis ATCC 12228
[11] = test system: Escherichia coli ATCC 25922
[12] = test system: Pseudomonas aeruginosa ATCC 27853
[13] = test system: Enterococcus faecalis ATCC 29212
[14] = test system: Staphylococcus aureus ATCC 29213
[15] = test system: Staphylococcus aureus ATCC 6538P
Staphylococcus aureus = test system: Staphylococcus aureus
[16] = test system: Bacillus subtilis ATCC 6633
[17] = test system: Streptococcus mutans ATCC 25175
Escherichia coli D31 = test system: Escherichia coli D31
[18] = test system: Staphylococcus aureus ATCC 25923
[19] = test system: Pseudomonas aeruginosa ATCC 15442
[20] = test system: Candida albicans ATCC 10231

MIC [1]: 12.5 µM (≈ 38.9 µg/mL)
MIC [2]: 3.1 µM (≈ 9.66 µg/mL)
MIC [3]: ≥ 100 µM
MIC [4]: 12.5 µM (≈ 38.9 µg/mL)
SMILES: CC[C@H](C)[C@H](NC(=O)[C@H](CCCCN)NC(=O)[C@@H](NC(=O)[C@H](CO)NC(=O)[C@H](CC(N)=O)NC(=O)[C@H](Cc1c[nH]c2ccccc12)NC(=O)[C@H](CC(C)C)NC(=O)CN)[C@@H](C)CC)C(=O)N[C@@H](C)C(=O)NCC(=O)N[C@@H](CCCCN)C(=O)N[C@@H](CC(N)=O)C(=O)N[C@@H](CC(C)C)C(=O)N[C@@H](Cc1ccccc1)C(=O)N[C@H](C(=O)N[C@@H](CC(N)=O)C(=O)N[C@H](C(=O)N[C@@H](CC(C)C)C(=O)N[C@@H](CC(=O)O)C(=O)N[C@@H](CCCCN)C(=O)N[C@H](C(=O)N[C@@H](CCCN=C(N)N)C(=O)N[C@H]1CSSC[C@@H](C(=O)O)NC(=O)CNC(=O)CNC(=O)[C@H](C)NC(=O)[C@H](C(C)C)NC(=O)[C@H](CCCCN)NC1=O)[C@@H](C)CC)C(C)C)C(C)C [GLWNSIKIAGKNLFVNVLDKIRCKVAGGC]

MIC [5]: 0.4 µM (≈ 0.728 µg/mL)
SMILES: CC[C@H](C)[C@H](N)C(=O)N[C@@H](CC(C)C)C(=O)N1CCC[C@H]1C(=O)N[C@@H](Cc1c[nH]c2ccccc12)C(=O)N[C@@H](CCCCN)C(=O)N[C@@H](Cc1c[nH]c2ccccc12)C(=O)N1CCC[C@H]1C(=O)N[C@@H](Cc1c[nH]c2ccccc12)C(=O)N[C@@H](Cc1c[nH]c2ccccc12)C(=O)N1CCC[C@H]1C(=O)N[C@@H](Cc1c[nH]c2ccccc12)C(=O)N[C@@H](C)C(=O)N[C@@H](CCCN=C(N)N)C(N)=O [ILPWKWPWWPWAR]

MIC (Staphylococcus xylosus): ≥ 64 µM
MIC [6]: ≥ 64 µM
SMILES: CC[C@H](C)[C@H](N)C(=O)N[C@@H](CC(C)C)C(=O)N[C@H](C(=O)N[C@@H](CC(C)C)C(=O)N[C@H](C(=O)N[C@@H](CCCCN)C(=O)N[C@@H](CCCN=C(N)N)C(=O)N[C@@H](CCCCN)C(=O)O)[C@@H](C)CC)[C@@H](C)CC [ILILIKRK]

MIC [7]: 16 µM (≈ 24.4 µg/mL)
MIC [8]: 4 µM (≈ 6.1 µg/mL)
MIC [9]: 2 µM (≈ 3.05 µg/mL)
MIC [10]: 8 µM (≈ 12.2 µg/mL)
MIC [11]: 2 µM (≈ 3.05 µg/mL)
MIC [12]: > 128 µM
MIC [13]: 8 µM (≈ 12.2 µg/mL)
MIC [14]: 8 µM (≈ 12.2 µg/mL)
SMILES: NC(=O)[C@H](Cc1c[nH]c2ccccc12)NC(=O)[C@H](CCCN=C(N)N)NC(=O)[C@H](CS)NC(=O)[C@H](Cc1ccccc1)NC(=O)[C@H](CCCN=C(N)N)NC(=O)[C@H](CCCN=C(N)N)NC(=O)[C@H](CCCN=C(N)N)NC(=O)[C@H](CS)NC(=O)[C@H](CCCN=C(N)N)NC(=O)[C@@H](N)Cc1c[nH]c2ccccc12 [WRCRRRFCRW]

MIC [15]: 0.878 µM
MIC (Staphylococcus aureus): 4.39 µM
SMILES: CC[C@H](C)[C@@H]1NC(=O)[C@H](C)NC(=O)[C@H](CC(C)C)NC(=O)[C@@H]2CSSC[C@@H](C(=O)N[C@@H](CCCN=C(N)N)C(=O)N[C@@H](CCCN=C(N)N)C(=O)O)NC(=O)[C@H]([C@@H](C)CC)NC(=O)[C@@H]3CSSC[C@H](NC(=O)[C@H](CC(C)C)NC(=O)[C@H](CO)NC(=O)[C@H](Cc4cnc[nH]4)NC(=O)[C@H](CC(N)=O)NC(=O)[C@H](C)NC(=O)[C@H](C)NC(=O)[C@H](Cc4ccccc4)NC(=O)CNC(=O)[C@H](CCCCN)NC(=O)[C@H](C)NC(=O)[C@H](CCC(=O)O)NC(=O)[C@H](Cc4ccccc4)NC(=O)[C@H](CO)NC(=O)[C@H](CC(C)C)NC(=O)[C@H](CC(C)C)NC(=O)[C@H](CC(=O)O)NC(=O)[C@@H](NC(=O)[C@@H](NC(=O)[C@@H](N)C(C)C)[C@@H](C)O)CSSC[C@H](NC(=O)[C@H](CO)NC(=O)CNC(=O)CNC(=O)[C@H](CCCN=C(N)N)NC(=O)[C@H](CCCN=C(N)N)NC(=O)CNC1=O)C(=O)N[C@@H](CCC(=O)O)C(=O)N[C@@H](CCCN=C(N)N)C(=O)NCC(=O)N[C@@H](C(C)C)C(=O)N3)C(=O)N[C@@H](C)C(=O)N[C@@H](C)C(=O)N[C@@H](Cc1cnc[nH]1)C(=O)N2 [VTCDLLSFEAKGFAANHSLCAAHCLAIGRRGGSCERGVCICRR]

MIC (Staphylococcus xylosus): 2 µM (≈ 2.82 µg/mL)
MIC [6]: 8 µM (≈ 11.3 µg/mL)
SMILES: CC[C@H](C)[C@H](NC(=O)[C@H](CC(C)C)NC(=O)[C@@H](NC(=O)[C@H](CC(C)C)NC(=O)[C@@H](NC(=O)[C@H](CCCCN)NC(=O)[C@H](CCCN=C(N)N)NC(=O)[C@@H](N)CCCCN)[C@@H](C)CC)[C@@H](C)CC)C(=O)N[C@@H](CCCCN)C(=O)N[C@@H](CCCN=C(N)N)C(=O)N[C@@H](CCCCN)C(=O)O [KRKILILIKRK]

MIC (Staphylococcus xylosus): 16 µM (≈ 18 µg/mL)
MIC [6]: ≥ 32 µM
SMILES: CC[C@H](C)[C@H](NC(=O)[C@H](CC(C)C)NC(=O)[C@@H](NC(=O)[C@H](CC(C)C)NC(=O)[C@@H](NC(=O)[C@@H](N)CCCCN)[C@@H](C)CC)[C@@H](C)CC)C(=O)N[C@@H](CCCCN)C(=O)N[C@@H](CCCN=C(N)N)C(=O)N[C@@H](CCCCN)C(=O)O [KILILIKRK]

MIC [1]: 12.5 µM (≈ 25.1 µg/mL)
MIC [2]: 3.1 µM (≈ 6.22 µg/mL)
MIC [3]: ≥ 50 µM
MIC [4]: ≥ 50 µM
MIC [16]: 12.5 µM (≈ 25.1 µg/mL)
SMILES: CC[C@H](C)[C@H](NC(=O)CN)C(=O)N[C@@H](CC(C)C)C(=O)NCC(=O)N[C@H](C(=O)N[C@H](C(=O)N[C@@H](Cc1ccccc1)C(=O)N[C@@H](CCCCN)C(=O)N[C@@H](C)C(=O)NCC(=O)N[C@@H](CCCCN)C(=O)NCC(=O)N[C@H](C(=O)N[C@H](C(=O)N[C@H]1CSSC[C@@H](C(=O)O)NC(=O)[C@H](CC(C)C)NC(=O)CNC(=O)[C@H]([C@@H](C)O)NC(=O)[C@H](CC(C)C)NC(=O)CNC1=O)C(C)C)[C@@H](C)CC)C(C)C)[C@@H](C)O [GILGTVFKAGKGIVCGLTGLC]

MIC [17]: ≥ 100 µM
MIC (Escherichia coli D31): ≥ 100 µM
MIC [18]: 45.3 µM (≈ 107 µg/mL)
MIC [19]: ≥ 100 µM
MIC [20]: > 100 µM
SMILES: CC(C)C[C@H](NC(=O)CN)C(=O)N[C@H](C(=O)N[C@H](C(=O)N[C@@H](CC(=O)O)C(=O)N[C@H](C(=O)N[C@@H](CC(C)C)C(=O)N[C@@H](CCCCN)C(=O)NCC(=O)N[C@@H](C)C(=O)N[C@@H](C)C(=O)N[C@@H](CCCCN)C(=O)N[C@H](C(=O)N[C@H](C(=O)N[C@@H](C)C(=O)N[C@@H](C)C(=O)N[C@@H](CCC(=O)O)C(=O)N[C@@H](CC(C)C)C(=O)N[C@@H](CC(C)C)C(=O)N[C@@H](CCCN=C(N)N)C(=O)N[C@@H](CCCCN)C(=O)N[C@@H](C)C(=O)N[C@@H](Cc1cnc[nH]1)C(N)=O)C(C)C)[C@@H](C)O)[C@@H](C)O)[C@@H](C)O)C(C)C [GLVTDTLKGAAKTVAAELLRKAH]

MIC (Staphylococcus xylosus): 8 µM (≈ 14.7 µg/mL)
MIC [6]: 16 µM (≈ 29.4 µg/mL)
SMILES: CC[C@H](C)[C@H](NC(=O)[C@H](CC(C)C)NC(=O)[C@@H](NC(=O)[C@H](CCCN=C(N)N)NC(=O)[C@H](CCCCN)NC(=O)[C@H](CCCN=C(N)N)NC(=O)[C@H](CCCCN)NC(=O)[C@H](CC(C)C)NC(=O)[C@@H](NC(=O)[C@H](CC(C)C)NC(=O)[C@H](CCCCN)NC(=O)[C@@H](N)CCCN=C(N)N)[C@@H](C)CC)[C@@H](C)CC)C(=O)N[C@@H](CCCCN)C(=O)N[C@@H](CCCN=C(N)N)C(=O)O [RKLILKRKRILIKR]
